{"source": "patent US9561220B2", "about": "“Group of alkaloids, the novel autophagic enhancers for treatment of cancers and neurodegenerative conditions thereof” (Macau University of Science and Technology, priority 2014, dated 2017)", "key": {"[1]": {"test_system": "panel of human cancer cells (HeLa, MCF-7, HepG2, Hep3B, H1299, A549, PC3)", "assay": "cells", "assay_type": "cell-based", "procedure": "The test compounds of liensinine, isoliensinine, dauricine, cepharanthine, hernandezine and thalidezine were dissolved in DMSO at a final concentration of 100 mmol/L and stored at −20° C. Cytotoxicity was assessed using the 3-(4,5-dimethylthiazol-2-yl)-2,5-diphenyltetrazolium bromide assay as described previously. 4000-8000 HeLa (human cervical cancer), MCF-7 (human breast cancer), HepG2 (human liver cancer), Hep3B (human liver cancer), H1299 (human lung cancer), A549 (human lung cancer), PC3 (human prostate cancer) and LO2 (human normal liver) cells were seeded on 96-well plates per well. After overnight pre-incubation, the cells were exposed to different concentrations of liensinine, isoliensinine, dauricine, cepharanthine, hernandezine and thalidezine (0.039-100 μmol/L) for 3 days. Specifically, the following concentrations are used for all of the above alkaloids: […], 0.039 μmol/L. Subsequently, 10 μL of MTT reagents was added to each well and incubated at 37° C. for 4 hours followed by the addition of 100 μL solubilization buffer (10% SDS in 0.01 mol/L HCl) and overnight incubation. Absorbance at 585 nm was determined from each well on the following day. The percentage of cell viability was calculated using the following formula: Cell viability (%)=Cells number treated/Cells number DMSO control×100. Data was obtained from three independent experiments."}, "[2]": {"test_system": "a panel of cancer and normal cells", "assay": "GFP-LC3 puncta formation in a panel of cancer and normal cells", "assay_type": "cell-based, human", "details": "fluorescent microscopy (FIG. 2c)", "procedure": "GFP-LC3 puncta formation was quantified as previously described. In brief, GFP-LC3 transfected cells grown on coverslips in a 6-well plate were treated with or without 20 μM of […], 10 μM of isoliensinine, dauricine, cepharanthine, hernandezine or thalidezine for 4 hours, the cells were then fixed in 4% paraformaldehyde for 20 minutes at room temperature and then rinsed with PBS. Slides were mounted with FluorSaveTM mounting media (Calbiochem, San Diego, Calif.) and examined by fluorescence microscopy. The number of GFP-positive cells with GFP-LC3 puncta formation was examined under the Nikon ECLIPSE 80i microscope. Representative images were captured with CCD digital camera Spot RT3TM (Diagnostic Instruments, Inc., Melville, N.Y.). To quantify for autophagy, the percentage of cells with punctate GFP-LC3 fluorescence was calculated by counting the number of the cells with punctate GFP-LC3 fluorescence in GFP-positive cells. A minimum of 150 cells from 3 randomly selected fields was scored."}, "[3]": {"test_system": "Atg7 wild-type mouse embryonic fibroblasts", "assay": "GFP-LC3 puncta in Atg7 wild-type MEFs", "assay_type": "cell-based", "details": "20 μM liensinine or 10 μM others, 24 h (FIGS. 4a to 4c)", "procedure": "GFP-LC3 puncta formation was quantified as previously described. In brief, both Atg7 wild-type (Atg7-wt or Atg7+/+) and deficient (Atg7-/-) mouse embryonic fibroblasts (MEFs) were transfected with GFP-LC3 plasmid and then grown on coverslips in a 6-well plate. The cells were then treated with 20 μM of […], 10 μM of isoliensinine, 10 μM of dauricine, 10 μM of cepharanthine, hernandezine or 10 μM of thalidezine. for 24 h. The cells were then fixed in 4% paraformaldehyde for 20 minutes at room temperature and then rinsed with PBS. Slides were mounted with FluorSaveTM mounting media (Calbiochem, San Diego, Calif.) and examined by fluorescence microscopy. The number of GFP-positive cells with GFP-LC3 puncta formation was examined under the Nikon ECLIPSE 80i microscope. Representative images were captured with CCD digital camera Spot RT3TM (Diagnostic Instruments, Inc., Melville, N.Y.). To quantify for autophagy, the percentage of cells with punctate GFP-LC3 fluorescence was calculated by counting the number of the cells with punctate GFP-LC3 fluorescence in GFP-positive cells. A minimum of 150 cells from 3 randomly selected fields were scored."}, "AMPK": {"test_system": "AMPK", "assay": "Detection of mTOR signaling marker proteins: AMPK phosphorylation (Western blot)", "assay_type": "cell-based, human", "details": "HeLa cells, 20 μM liensinine or 10 μM others, compared to DMSO control (FIG. 5a)", "procedure": "(§1) HeLa cells treated with 20 μM of […], 10 μM of isoliensinine, 10 μM of dauricine, 10 μM of cepharanthine, 10 μM of hernandezine and 10 μM of thalidezine were harvested and lysed in RIPA buffer (Cell Signaling). The cell lysates were then resolved by SDS-PAGE. After electrophoresis, the proteins from SDS-PAGE were transferred to nitrocellulose membrane which was then blocked with 5% non-fat dried milk for 60 minutes. The membrane was then incubated with P-p70S6K, p70S6K, P-AMPK, AMPK and actin primary antibodies (1:1000) in TBST overnight at 4° C. respectively. After that, the membrane was further incubated with HRP-conjugated secondary antibodies for 60 minutes. Finally, protein bands were visualized by using the ECL Western Blotting Detection Reagents (Invitrogen)."}, "p70S6K": {"test_system": "p70S6K", "assay": "Detection of mTOR signaling marker proteins: p70S6K phosphorylation (Western blot)", "assay_type": "cell-based, human", "details": "HeLa cells, 20 μM liensinine or 10 μM others (FIG. 5a)", "procedure": "as §1"}, "[4]": {"test_system": "autophagy deficient cells (Atg7−/− or Atg7-ko) MEFs", "assay": "Annexin V / propidium iodide flow cytometry in Atg7 wild-type and deficient MEFs", "assay_type": "cell-based, mouse", "procedure": "Cell viability was measured using an annexin V staining kit (BD Biosciences, San Jose, Calif., USA). Briefly, Atg7 wild-type (Atg7+/+ or Atg7-wt) and Atg7 deficient (Atg7−/− or Atg7-ko) mouse embryonic fibroblasts (MEFs) were treated with the selected alkaloids for 24 h. Cells were then harvested and analysed by multiparametric flow cytometry using FITC-Annexin V and Propidium iodide staining (BD Biosciences, San Jose, Calif., USA) according to the manufacturer's instructions. Flow cytometry was then carried out using a FACSCalibur flow cytometer (BD Biosciences, San Jose, Calif., USA). Data acquisition and analysis was performed with CellQuest (BD Biosciences, San Jose, Calif., USA). Data were obtained from three independent experiments."}, "[5]": {"details": "Homo sapiens, 72 h, read-out: mean IC50 value (cell cytotoxicity)"}, "[6]": {"details": "MEFs, 24 h, annexin V/PI flow cytometry (FIGS. 6a to 6c)"}}, "note": "Read-outs that look alike come from different tables or passages of the source."}
{"molecule": "COc1cc2c(cc1OC)[C@@H](Cc1ccc(Oc3cc(C[C@@H]4c5cc(OC)c(OC)cc5CCN4C)ccc3O)cc1)N(C)CC2", "note": "[dauricine]", "values": [{"measurement": "IC50", "setting": "[1]; [5]", "result": "4.52 to 61.8", "unit": "µM"}, {"measurement": "formation of GFP-LC3 puncta", "setting": "[2]", "result": "increased"}, {"measurement": "GFP-LC3 puncta formation in wild type Atg7 cells", "setting": "[3]", "result": "induce"}, {"measurement": "phosphorylation of AMPK", "setting": "AMPK", "result": "activate"}, {"measurement": "downstream p70S6K phosphorylation", "setting": "p70S6K", "result": "concomitant reduction"}, {"measurement": "cytotoxic effect to autophagy deficient cells (Atg7−/−) versus Atg7 wild-type", "setting": "[4]; [6]", "result": "less cytotoxicity"}]}
{"molecule": "COc1ccc2cc1Oc1ccc(cc1)C[C@H]1c3cc(c(OC)cc3CCN1C)Oc1c(OC)c(OC)c(OC)c3c1[C@H](C2)N(C)CC3", "note": "[hernandezine]", "values": [{"measurement": "IC50", "setting": "[1]; [5]", "result": "4.52 to 61.8", "unit": "µM"}, {"measurement": "formation of GFP-LC3 puncta", "setting": "[2]", "result": "increased"}, {"measurement": "GFP-LC3 puncta formation in wild type Atg7 cells", "setting": "[3]", "result": "induce"}, {"measurement": "phosphorylation of AMPK", "setting": "AMPK", "result": "activate"}, {"measurement": "downstream p70S6K phosphorylation", "setting": "p70S6K", "result": "concomitant reduction"}]}
{"molecule": "COc1ccc(C[C@@H]2c3cc(Oc4cc(C[C@@H]5c6cc(O)c(OC)cc6CCN5C)ccc4O)c(OC)cc3CCN2C)cc1", "note": "[isoliensinine]", "values": [{"measurement": "IC50", "setting": "[1]; [5]", "result": "4.52 to 61.8", "unit": "µM"}, {"measurement": "formation of GFP-LC3 puncta", "setting": "[2]", "result": "increased"}, {"measurement": "GFP-LC3 puncta formation in wild type Atg7 cells", "setting": "[3]", "result": "induce"}, {"measurement": "phosphorylation of AMPK", "setting": "AMPK", "result": "activate"}, {"measurement": "downstream p70S6K phosphorylation", "setting": "p70S6K", "result": "concomitant reduction"}, {"measurement": "cytotoxic effect to autophagy deficient cells (Atg7−/−) versus Atg7 wild-type", "setting": "[4]; [6]", "result": "less cytotoxicity"}]}
{"molecule": "COc1cc2c(cc1OC)[C@@H](Cc1ccc(O)c(Oc3cc4c(cc3OC)CCN(C)[C@@H]4Cc3ccc(O)cc3)c1)N(C)CC2", "note": "[liensinine]", "values": [{"measurement": "IC50", "setting": "[1]", "result": "4.52 to 61.8", "unit": "µM"}, {"measurement": "formation of GFP-LC3 puncta", "setting": "[2]", "result": "increased"}, {"measurement": "GFP-LC3 puncta formation in wild type Atg7 cells", "setting": "[3]", "result": "induce"}, {"measurement": "phosphorylation of AMPK", "setting": "AMPK", "result": "activate"}, {"measurement": "downstream p70S6K phosphorylation", "setting": "p70S6K", "result": "concomitant reduction"}, {"measurement": "cytotoxic effect to autophagy deficient cells (Atg7−/−) versus Atg7 wild-type", "setting": "[4]; [6]", "result": "less cytotoxicity"}]}
{"molecule": "thalidezine", "values": [{"measurement": "IC50", "setting": "[1]", "result": "4.52 to 61.8", "unit": "µM"}, {"measurement": "formation of GFP-LC3 puncta", "setting": "[2]", "result": "increased"}, {"measurement": "GFP-LC3 puncta formation in wild type Atg7 cells", "setting": "[3]", "result": "induce"}, {"measurement": "phosphorylation of AMPK", "setting": "AMPK", "result": "activate"}, {"measurement": "downstream p70S6K phosphorylation", "setting": "p70S6K", "result": "concomitant reduction"}, {"measurement": "cytotoxic effect to autophagy deficient cells (Atg7−/−) versus Atg7 wild-type", "setting": "[4]", "result": "less cytotoxicity"}]}
